Where a name gives a salt, the structure may show the parent alone.
Assays:
[1] = Pharmacokinetic analysis of ladostigil and metabolites in Alzheimer's disease patients; settings: human, in vivo, 100 mg; for Cmax / AUC / AUC(0-t): after ladostigil tartrate 100 mg twice daily; for concentration at 12 h: mean concentration at pre-dose, 12 hours after the previous dose of ladostigil tartrate; for AUC: AUC (M)
MAO-A = molecular target: T1, MAO-A (Rattus norvegicus, UniProt P21396); experiment: Inhibition of MAO activity in vitro (5-HT substrate); assay type: biochemical
T1 construct: from tissue; host or cells: brain, liver and intestine (duodenum) of dosed rats
T1 sequence (P21396 1-526): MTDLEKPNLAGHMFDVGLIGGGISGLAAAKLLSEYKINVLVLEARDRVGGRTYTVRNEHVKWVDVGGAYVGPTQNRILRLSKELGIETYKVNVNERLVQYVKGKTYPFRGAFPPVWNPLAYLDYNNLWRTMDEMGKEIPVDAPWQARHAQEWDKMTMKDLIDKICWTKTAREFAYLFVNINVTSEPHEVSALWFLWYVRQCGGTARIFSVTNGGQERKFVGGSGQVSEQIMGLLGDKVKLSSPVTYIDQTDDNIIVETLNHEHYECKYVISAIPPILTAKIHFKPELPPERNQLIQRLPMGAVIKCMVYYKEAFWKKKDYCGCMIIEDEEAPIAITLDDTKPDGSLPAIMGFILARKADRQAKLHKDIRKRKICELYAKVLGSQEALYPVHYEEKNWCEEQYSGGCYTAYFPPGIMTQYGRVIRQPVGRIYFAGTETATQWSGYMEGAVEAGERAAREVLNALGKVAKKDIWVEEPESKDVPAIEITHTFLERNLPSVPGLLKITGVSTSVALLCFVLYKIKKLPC
Experimental: The MAO enzyme source was a homogenate of rat brain in 0.3M sucrose. The homogenate was diluted appropriately, and pre-incubated with serial dilutions of test compounds—diluted in phosphate buffer containing clogyline when 2-phenylethylamine (PEA) is the substrate, and diluted in phosphate buffer containing selegiline when 5-hydroxytryptamine (5-HT) is the substrate—for 60 minutes at 37° C. 14C-Labeled substrates (PEA for MAO-B determination and 5-HT for MAO-A determination) were then added, and the incubation continued for a further 20 minutes (PEA) or 30 minutes (5-HT). Substrate concentrations used were 10 μM (PEA) and 100 uM (5-HT). Enzyme concentration was chosen so that not more than 10% of the substrate was metabolized during the course of the reaction. Deaminated products were extracted into toluene-ethyl acetate (1:1 v/v) containing 0.4% (w/v) 2,5-diphenyloxazole (ppo) prior to determination by liquid scintillation counting. Radioactivity in the eluate indicated the production of neutral and acidic metabolites formed as a result of MAO activity. Activity of MAO in the sample was expressed as a percentage of control activity in the absence of inhibitor after subtraction of appropriate blank values. The activity determined using PEA as substrate is referred to as MAO-B, and that determined using 5-HT as MAO-A.
Concentrations of each inhibitor producing 50% inhibition of substrate metabolism (IC50) were calculated from the inhibition curves, and are shown in Table 1.

[2] = both, Cmax (M), mean, mean of patients, maintenance analysis Week 4
[3] = both, Cmax (T), mean, mean of patients, termination analysis Week 9
[4] = both, Cmin (M), mean of patients, maintenance analysis Week 4
[5] = both, Cmin (T), mean of patients, termination analysis Week 9
[6] = Patient 1, maintenance analysis Week 4
[7] = Patient 2, maintenance analysis Week 4
[8] = Patient 3, maintenance analysis Week 4
[9] = Patient 4, maintenance analysis Week 4
[10] = Patient 5, maintenance analysis Week 4
[11] = Patient 6, maintenance analysis Week 4
[12] = Patient 7, maintenance analysis Week 4
[13] = Patient 8, maintenance analysis Week 4
[14] = Patient 1, termination analysis Week 9
[15] = Patient 2, termination analysis Week 9
[16] = Patient 3, termination analysis Week 9
[17] = Patient 4, termination analysis Week 9
[18] = Patient 5, termination analysis Week 9
[19] = Patient 6, termination analysis Week 9
[20] = Patient 7, termination analysis Week 9
[21] = Patient 8, termination analysis Week 9
[22] = Cmax (M), Patient 1, maintenance analysis Week 4
[23] = Cmax (M), Patient 2, maintenance analysis Week 4
[24] = Cmax (M), Patient 3, maintenance analysis Week 4
[25] = Cmax (M), Patient 4, maintenance analysis Week 4
[26] = Cmax (M), Patient 5, maintenance analysis Week 4
[27] = Cmax (M), Patient 6, maintenance analysis Week 4
[28] = Cmax (M), Patient 7, maintenance analysis Week 4
[29] = Cmax (M), Patient 8, maintenance analysis Week 4
[30] = Cmax (T), Patient 1, termination analysis Week 9
[31] = Cmax (T), Patient 2, termination analysis Week 9
[32] = Cmax (T), Patient 3, termination analysis Week 9
[33] = Cmax (T), Patient 4, termination analysis Week 9
[34] = Cmax (T), Patient 5, termination analysis Week 9
[35] = Cmax (T), Patient 6, termination analysis Week 9
[36] = Cmax (T), Patient 7, termination analysis Week 9
[37] = Cmax (T), Patient 8, termination analysis Week 9

CNC(=O)Oc1ccc2c(c1)[C@H](N)CC2 [R-MCAI, Methyl-carbamic acid 3-R-amino-indan-5-yl ester hydrochloride]
half-life ([1]; both): 8.09 h | Cmax [1, 2]: 2.7e-07 M | Cmax [1, 3]: 2.61e-07 M | concentration at 12 h [1, 4]: 1.53e-07 M | concentration at 12 h [1, 5]: 1.39e-07 M | AUC [1, 6]: 62 ng·h/mL | AUC [1, 7]: 121 ng·h/mL | AUC [1, 8]: 172 ng·h/mL | AUC [1, 9]: 191 ng·h/mL | AUC [1, 10]: 171 ng·h/mL | AUC [1, 11]: 144 ng·h/mL | AUC [1, 12]: 213 ng·h/mL | AUC [1, 13]: 86 ng·h/mL | AUC(0-t) [1, 14]: 570 ng·h/mL | AUC(0-t) [1, 15]: 733 ng·h/mL | AUC(0-t) [1, 16]: 958 ng·h/mL | AUC(0-t) [1, 17]: 672 ng·h/mL | AUC(0-t) [1, 18]: 895 ng·h/mL | AUC(0-t) [1, 19]: 964 ng·h/mL | AUC(0-t) [1, 20]: 186 ng·h/mL | AUC(0-t) [1, 21]: 426 ng·h/mL | Cmax [1, 22]: 1e-07 M | Cmax [1, 23]: 2e-07 M | Cmax [1, 24]: 3e-07 M | Cmax [1, 25]: 3e-07 M | Cmax [1, 26]: 3e-07 M | Cmax [1, 27]: 3e-07 M | Cmax [1, 28]: 4e-07 M | Cmax [1, 29]: 2e-07 M | Cmax [1, 30]: 2e-07 M | Cmax [1, 31]: 2e-07 M | Cmax [1, 32]: 3e-07 M | Cmax [1, 33]: 2e-07 M | Cmax [1, 34]: 4e-07 M | Cmax [1, 35]: 3e-07 M | Cmax [1, 36]: 2e-07 M | Cmax [1, 37]: 2e-07 M | IC50 (MAO-A): 32.2 µM

C#CCN[C@@H]1CCc2ccc(OC(=O)NC)cc21 [R-MCPAI, Methyl-carbamic acid 3-R-(prop-2-ynylamino)-indan-5-yl ester hydrochloride]
half-life ([1]; both): 1.39 h | Cmax [1, 2]: 1.29e-06 M | Cmax [1, 3]: 1.07e-06 M | concentration at 12 h [1, 4]: 1.74e-08 M | concentration at 12 h [1, 5]: 1.32e-08 M | AUC [1, 6]: 684 ng·h/mL | AUC [1, 7]: 103 ng·h/mL | AUC [1, 8]: 596 ng·h/mL | AUC [1, 9]: 764 ng·h/mL | AUC [1, 10]: 491 ng·h/mL | AUC [1, 11]: 630 ng·h/mL | AUC [1, 12]: 212 ng·h/mL | AUC [1, 13]: 304 ng·h/mL | AUC(0-t) [1, 14]: 493 ng·h/mL | AUC(0-t) [1, 15]: 789 ng·h/mL | AUC(0-t) [1, 16]: 621 ng·h/mL | AUC(0-t) [1, 17]: 487 ng·h/mL | AUC(0-t) [1, 18]: 551 ng·h/mL | AUC(0-t) [1, 19]: 947 ng·h/mL | AUC(0-t) [1, 20]: 584 ng·h/mL | AUC(0-t) [1, 21]: 343 ng·h/mL | Cmax [1, 22]: 1.8e-06 M | Cmax [1, 23]: 3e-07 M | Cmax [1, 24]: 1.2e-06 M | Cmax [1, 25]: 3e-06 M | Cmax [1, 26]: 1.5e-06 M | Cmax [1, 27]: 1.3e-06 M | Cmax [1, 28]: 5e-07 M | Cmax [1, 29]: 7e-07 M | Cmax [1, 30]: 1.3e-06 M | Cmax [1, 31]: 1e-06 M | Cmax [1, 32]: 1e-06 M | Cmax [1, 33]: 1.1e-06 M | Cmax [1, 34]: 1.3e-06 M | Cmax [1, 35]: 1.3e-06 M | Cmax [1, 36]: 1e-06 M | Cmax [1, 37]: 6e-07 M | IC50 (MAO-A): 37 µM

Reference: patent US8609719B2, “Propargylated aminoindans, processes for preparation, and uses thereof” (priority 2006, dated 2013)
